These results are taken from US7060290B1, “Phosphocholine linked prodrug derivatives” (Supergen, Inc., priority 1999, dated 2006).

The conditions of data set [1]: J. Med. Chem. 39:2156–2169, 1996; cited from earlier work.
Data set [2] has as its system cutaneous hypersensitivity immune response. Kind of data set: DNCB-induced cutaneous contact hypersensitivity (ear swelling) in mice. It is filed as in vivo, mice (Balb/c). Particulars: for Effect on DNCB-induced cutaneous hypersensitivity immune response: 100 μg/day/mouse subcutaneously, twelve-day study, ear rechallenge with 1% DNCB, swelling on days 7–12; for Effect of dexamethasone on the response to the hormone: co-administered with dexamethasone, days 7–12. Here is the method:
The effects of DHEA-PC on cutaneous contact hypersensitivity was studied. In this study, mice (Balb/c) were immunologically challenged with DNCB (2% in ethanol) applied to a 2 cm area on the back. The steroid was injected subcutaneously (100 μg/day/mouse) throughout the twelve-day study period. Ears were rechallenged with DNCB (1% in ethanol) on days 7–12 and swelling was measured daily in order to evaluate the effect on the immune system.

Data set [3] in a line: Water/benzene extraction of the tritiated DHEA-phosphocholine reaction product, phases counted by scintillation. It is filed as physicochemical. Here is the method:
A dehydroepiandrosterone(DHEA)-phosphocholine derivative was synthesized as follows: 1 mg of phosphocholine (calcium salt; Sigma Chemical, St. Louis, Mo.) was dissolved in 0.5 ml of formamide (Cat # S-7503; Lot # 55HO257; Sigma Chemical) and 0.5 ml of pyridine (Cat # P-4036; Lot # 55H1489; Sigma Chemical). 0.025 mCi of (1,2,6,7 ^3H(n)-Dehydroepiandrosterone (Cat # NET814; Lot # 3146097; 89.2 Ci/mmol; Dupont, NEN Products, Boston, Mass.) in 0.025 ml of ethanol was added. The reaction was catalyzed by the addition (as the dry solid) of 5 mg of dicyclohexylcarbodiimide (Cat # D-3129; Lot # 34hO647; Sigma Chemical). The reaction mixture was incubated overnight at room temperature. In the morning, 9 ml of water was added and the mixture extracted 3 times with 10 ml portions of benzene. The benzene extracts were combined and aliquots of both phases were counted in a scintillation counter. The results are set forth below:
The aqueous layer was re-extracted with benzene. The second benzene extraction yielded 272 cpm (0.01 M1) as a confirmation.
Free DHEA starting material would have been extracted quantitatively into benzene with this protocol.

Data set [4] deals with neutral sphingomylenase. Kind of data set: Hydrolysis of DHEA-PC by neutral sphingomylenase. It is filed as biochemical. Here is the method: DHEA-phosphocholine (DHEA-PC) was synthesized by sequential reaction of DHEA, choline, and water with phosphorous oxychloride. The synthetic product had the same HPLC retention time and the same mass-spectrum as did the endogenous, actual compound. […] When human serum extracts were analyzed, mass fragments were detected at the same retention time as synthetic material.

A short description of data set [5]: First-pass inactivation in the liver after oral administration. Particulars: phosphocholine-derivatized form; stated as believed. From the text: Subsequently, only a fraction of a percent of the administered drug is biologically available for function. […] When the phosphocholine moiety is removed by an esterase, such as phospholipase C, sphingomyelinase, etc., then the parent compound will be available for binding and function in the target tissue. Glucuronidation would only occur on its return to the liver after removal of the phosphocholine moiety.

Data set [6] has as its system enzyme on lymphocyte cell membrane that cleaves phosphocholine. Kind of data set: Lymphocyte cell membrane enzyme that cleaves phosphocholine from other compounds. Particulars: lymphocytes; data not shown. It is filed as cell-based. The text has this:
The conjugated therapeutic agents will be at least ten times more water soluble then the original alcohol. This will increase their bioavailability and decrease their metabolism to, e.g., the 3-glycoside in the case of steroids, which should be a major excretion pathway. The decreased glycoside formation will be caused by the presence of the phosphoester at that site. The derivative is not expected to be active prior to hydrolysis of the phospholipid group. […] The activity of this enzyme is stimulated ten-fold by TGF-α (data not shown). Without wishing to be bound by theory, it is believed that use of phospholipid-conjugated antibiotics of the present invention will lead to high concentrations of active agents at the site of an infection by the following mechanism. Lymphocytes are attracted to the site of an infection or inflammation where they release TGF-α, which, in turn, stimulates phospholipid hydrolysis in other subtypes. This same process will lead to local release of an active form of the antibiotic from the phospholipid diester conjugate. Because of the response of the enzyme to local concentrations of TGF-α, there should be a correspondingly high local concentration of the antibiotic. This will lead to effective therapy and lower toxicity.

“Also recorded” adds a separate entry of the source.

As to `O=C1N(Cc2ccc(CO)cc2)[C@H](Cc2ccccc2)[C@H](O)[C@@H](O)[C@@H](Cc2ccccc2)N1Cc1ccc(CO)cc1` [DMP-323], in data set [1], the Aqueous solubility entry is “low”.

For `C[C@]12CC[C@H](O)CC1=CC[C@@H]1[C@@H]2CC[C@]2(C)C(=O)CC[C@@H]12` [DHEA, dehydroepiandrosterone], in data set [2], the “Effect on DNCB-induced cutaneous hypersensitivity immune response” value is reported as “similar, high level response” and the “Effect of dexamethasone on the response to the hormone” value (“Effect of dexamethasone” below) is reported as “not suppressed by dexamethasone”.

For `C[C@]12CC[C@H](OS(=O)(=O)O)CC1=CC[C@@H]1[C@@H]2CC[C@]2(C)C(=O)CC[C@@H]12` [DHEA-sulfate], in data set [2], the “Effect on DNCB-induced cutaneous hypersensitivity immune response” value was “similar, high level response” and the “Effect of dexamethasone” value was “not suppressed by dexamethasone”.

Take `C[C@]12CC[C@H](OP(=O)([O-])OCC[N+](C)(C)C)CC1=CC[C@@H]1[C@@H]2CC[C@]2(C)C(=O)CC[C@@H]12` [DHEA-PC, DHEA-3-Phosphocholine]: in data set [2], the “Effect on DNCB-induced cutaneous hypersensitivity immune response” value was “potentiated dinitrochlorobenzene-induced sensitization; also recorded: enhanced the cutaneous hypersensitivity immune response” and the “Effect of dexamethasone” value was “not suppressed by dexamethasone”. The “Radioactivity in second benzene extraction” value in data set [3] (0.01 M1, re-extraction of the aqueous layer with benzene) was determined as 272 cpm. Besides, the “Radioactivity in aqueous phase” value in data set [3] (0.01 ml aliquot, after 3 extractions with 10 ml benzene, 3H label) was 10,729 cpm. Besides, the “Radioactivity in benzene phase” value in data set [3] (0.01 ml aliquot, combined benzene extracts, 3H label) was 1,121 cpm. Moreover, the “Phase in which the reaction product stays (hydrophilic character)” value in data set [3] (water/benzene, free DHEA would have been extracted quantitatively into benzene) is listed as “remains in the aqueous phase”. In data set [4], the “Hydrolysis by neutral sphingomylenase” value is given as “hydrolyzed”.

On to `C[C@]12CC[C@@H](OP(=O)([O-])OCC[N+](C)(C)C)C[C@H]1CC[C@@H]1[C@@H]2CC[C@]2(C)C(=O)CC[C@@H]12`, for which the “Fraction not metabolized at each pass through the liver” value in data set [5] is on record as “about 80%”.

Consider “TGF-α: factor released by lymphocytes that stimulates phospholipid hydrolysis”, for which the “Stimulation of the activity of the phosphocholine-cleaving enzyme” value in data set [6] was “ten-fold”.
